Assays:
[1] = Qualitative assessment of reduction of methylene blue in aqueous solution (visual colour change blue to colourless); assay type: physicochemical; details: for Rate/extent of reduction: neutral, final pH about 6.5; for Rate of reduction: compared to neutral pH
Experimental: In aqueous solution, the oxidised form of methylene blue has a deep blue coloration, and the reduced (leuco) form is colourless and clear. Reduction of methylene blue can therefore be determined by observation of a colour change from blue to colourless. In the present experiments, the colour change was measured by eye against a white background, but instrumentation, e.g. a visible range spectrophotometer, could also be used.
Individual reducing agents or combinations of reducing agents were added to a solution of methylene blue. […] Reduction of methylene blue was assessed by visual observation of colour change. […] The pH of the final solution of methylene blue and reducing agent(s) was about pH 6.5 in each case (here referred to as “neutral”).
Individual reducing agents or combinations of reducing agents were added, in solution; to a methylene blue solution which had been made either acid or alkaline using acetic acid or sodium hydroxide, respectively. The effect of pH on reduction of methylene blue was determined. Reduction of methylene blue was assessed by visual observation of colour change. The rate of reduction (if any) was compared to the rates of reduction at neutral pH.
In the present context, “acid” refers to a pH adjusted to approximately 3.7 using acetic acid, and “alkali” refers to a pH adjusted to approximately 9.8 using sodium hydroxide. The results are as follows: […]

[2] = Qualitative assessment of reduction of thionine in aqueous solution (visual colour change blue/purple to colourless); assay type: physicochemical; details: thionine 50 mg/30 ml; reducing agents 250 mg/3 ml
Experimental: The following reducing agents or combinations of reducing agents (250 mg/3 ml) were added to an aqueous solution of thionine (50 mg/30 mU. Reduction of thionine was determined by visual observation of colour change from blue/purple to colourless. All experiments used 1.67 mg/mI (50 mg/30 ml) thionine solution. Ascorbic acid, L-cysteine or glutathione was used in solution at 83.3 mg/mi (250 mg/3 ml).

[3] = acid, pH approximately 3.7 (acetic acid)
[4] = alkali, pH approximately 9.8 (sodium hydroxide)

SMILES	Rate/extent of reduction [1]	Rate of reduction [1, 4]	Rate of reduction [2]	Rate of reduction [1, 3]
Cl.N[C@@H](CS)C(=O)O [L-cysteine, L-cysteine hydrochloride]	no reduction	–	–	–
N[C@@H](CCC(=O)N[C@@H](CS)C(=O)NCC(=O)O)C(=O)O [glutathione]	no reduction over 15 minutes	slight reduction over 10-15 minutes	no reduction	no observable reduction (as with neutral)
CSCC[C@H](N)C(=O)O [methionine]	no reduction	–	–	–
O=S([O-])S(=O)[O-].[Na+].[Na+] [sodium hydrosulphite]	very rapid reduction	–	rapid reduction	–
O=S([O-])S(=O)(=O)[O-].[Na+].[Na+] [sodium metabisulphite]	no reduction	–	–	–

The next lines start with results.

Rate/extent of reduction [1]	Rate of reduction [1, 4]	Rate of reduction [2]	SMILES	Rate of reduction [1, 3]
partial reduction	–	–	CC(=O)N[C@@H](CS)C(=O)O [N-acetyl-L-cysteine, N-acetyl L-cysteine]	–
reduced slowly over 10-15 minutes	no change in rate compared to neutral	reduced in about 10-15 minutes	O=C1O[C@H]([C@@H](O)CO)C(O)=C1O [ascorbic acid]	no change in rate compared to neutral

Source: US20040033936A1, “Production, stabilisation and use of reduced forms of pharmaceutical compounds” (priority 2000, published 2004)
